Patent publication US20220274967A1, “BCAT MODULATION” (Icagen, LLC, priority 2019, published 2022)
Where two headings read alike, the source gives them in different places.

Tests used:
BCAT2 = target: T1, BCAT2 (Homo sapiens, UniProt O15382); assay: BCAT2 enzyme inhibition (human); format: biochemical
T1 sequence (O15382 28-392): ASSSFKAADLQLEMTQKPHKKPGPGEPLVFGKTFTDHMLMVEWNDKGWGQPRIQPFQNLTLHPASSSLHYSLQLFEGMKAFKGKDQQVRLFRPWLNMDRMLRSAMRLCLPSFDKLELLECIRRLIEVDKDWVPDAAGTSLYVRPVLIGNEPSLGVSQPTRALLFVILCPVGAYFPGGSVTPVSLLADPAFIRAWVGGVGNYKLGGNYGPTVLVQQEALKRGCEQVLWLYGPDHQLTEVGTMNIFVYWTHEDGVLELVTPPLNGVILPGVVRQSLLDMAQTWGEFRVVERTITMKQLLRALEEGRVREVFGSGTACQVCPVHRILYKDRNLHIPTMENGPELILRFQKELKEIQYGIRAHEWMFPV
Method in brief: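 Cell-free coupled fluorescent assay: human BCATm converts branched-chain amino acids and α-ketoglutarate to L-glutamate, which L-glutamate oxidase and HRP link to resorufin formation from Amplex Red; activity taken as reduced glutamate signal.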

[1] = 3-HIB assay in vitro, direct MS assay of conditioned media; format: cell-based, human; conditions: GM00371 cells, read-out: 3HIB INHIBITION IC50 (μM) MEAN GM00371 cells Direct MS Assay
Protocol: Cell Plating: Cells (Coriell Institute GM00371 cells) were plated (96-well clear bottom sterile plate; Greiner 655098) at 10,000 cells/0.1 mL in Eagle's minimum essential medium (EMEM)/15% FBS (Gibco 16000-044) with a Combi dispenser in a cell culture hood and incubated at 37° C. and 5% CO2 overnight.
Compound Dilution: Compound were prepared as 33.3× intermediate dilution in DMSO in 96 well round polystyrene plates. For 30 μM final maximum start with 30 μL of 10 mM in DMSO. 10-12 1:3 serial dilutions were prepared from left to right (20 μL+40 μL DMSO). A 10× secondary dilution was prepare in EMEM by taking 7.5 μL 33.3× and transfer to replicate 96 well round polystyrene plates and then adding 242.5 μL EMEM A 1× final dilution in EMEM was prepared by taking 50 μL 10× dilution and transferring to replicate 96 well polypropylene assay block (Costar 3956) and adding 450 μL EMEM A control was prepared for maximal compound inhibition by taking 20 μL 10 mM Reference Compound A and adding 40 μL DMSO for a concentration of 3.3 mM To 7.5 μL of the 3.3 mM Reference Compound A solution and added 242.5 μL EMEM to make a 100 μM solution. The subsequent Reference Compound A solution was diluted with EMEM to achieve a final concentration of 10 μM. The structure of Reference Compound A is:
A control was prepared for maximal compound toxicity by taking 7.5 μL Reference Compound B and 242.5 μL EMEM to make […]. 50 μL of that 100 μM Reference Compound B solution was combined with 450 μL EMEM to achieve a concentration of 30 μM. The structure of Reference Compound B is
A DMSO Control was prepared by dilution 7.5 μL with 242.5 μL EMEM and taking 50 μL of the subsequent solution and diluting with 450 μL EMEM.
Compound Treatment: Media was aspirated from the cells and 100 μL of D-PBS (ThermoFisher 14190144) was added and then removed. 100 μL of diluted compound was added to the cells in the place and the cells were incubated at 37° C. and 5% CO2 for 24 hours.
Collection of Conditioned Media: For 3HIB MS detection: 20 μL conditioned media was removed from the cells and was transferred to a labeled replicate 96 well polypropylene assay plate (VWR 62408-946). And the plate was heat sealed and stored at −80° C.
3HIB Derivatization (Generalized SOP): The media collected for 3HIB MS detection was derivatized under the following conditions. Buffer: 0.1M 1-Ethyl-3-(3-dimethylaminopropyl)carbodiimide (EDC) dissolved in 0.1 M 2-(N-morpholino)ethanesulfonic acid ([…]) adjusted to pH 5.6. Buffer prep: weighed 10.6 g MES (Sigma #M-5287) per 500 mL HPLC grade H2O. Stored at 4° C.; 0.1M EDC: Weighed 1.971 g EDC (#E-1769) per 100 mL MES. Adjusted pH to 5.6 with ˜40 drops of 1N NaOH and stored at 4° C. Buffer has a short half-life should be used within two weeks.
Derivatization: To 20 μL sample was added 60 μL 5 uM 3HIB-4C13 internal standard followed by 20 μL EDC in MES and 100 μL MES. The plate was sealed and incubate at 50° C. for […] then centrifuged at 4000 rpm at 6° C. for 10 minutes. LC-MS analysis was then conducted and the data was processed using standard methods.

Row | Compound | IC50 (BCAT2) [nM] | IC50 ([1]; Homo sapiens, 24 h) [µM] | IC50 ([1]; 24 hours) [µM]
1 | COC(=O)c1ccc2c(c1)nc(-c1ccccn1)n2[C@@H]1CCC[C@H](NC(=O)c2ccc(Br)s2)C1 [Compound 109] | 100 to 500 | 0.1 to 0.5 | 
2 | CNC(=O)c1ccc2c(c1)nc(-c1ccccn1)n2[C@@H]1CCC[C@H](NC(=O)c2ccc(C#N)s2)C1 [Compound 112] | 100 to 500 | 0.5 to 1 | 
3 | CNC(=O)c1ccc2c(c1)nc(-c1ccccc1C)n2[C@H]1CCC[C@@H](NC(=O)c2ccc(C#N)s2)C1 [Compound 134] | < 100 | 0.5 to 1 | 
4 | CNC(=O)c1ccc2c(c1)nc(-c1ccccc1C)n2[C@H]1CCC[C@@H](NC(=O)c2ccc(Br)s2)C1 [Compound 135] | < 100 | 0.1 to 0.5 | 
5 | CNC(=O)c1ccc2c(c1)nc(-c1ccccc1C#N)n2[C@H]1CCC[C@@H](NC(=O)c2ccc(Br)s2)C1 [Compound 136] | < 100 | < 0.1 | 
6 | CNC(=O)c1ccc2c(c1)nc(-c1ccccc1C#N)n2[C@H]1CCC[C@@H](NC(=O)c2ccc(Br)s2)C1 [Compound 137] | < 100 |  | 0.1 to 0.5
7 | CNC(=O)c1ccc2c(c1)nc(-c1ccccc1C#N)n2[C@H]1CCC[C@@H](NC(=O)c2ccc(C#N)s2)C1 [Compound 138] | < 100 | ≥ 1 | 
8 | CNC(=O)c1ccc2c(c1)nc(-c1ccccc1C#N)n2[C@H]1CCC[C@@H](NC(=O)c2ccc(C#N)s2)C1 [Compound 139] | < 100 |  | ≥ 1
9 | CNC(=O)c1ccc2c(c1)nc(-c1ccccc1F)n2[C@H]1CCC[C@@H](NC(=O)c2ccc(Br)s2)C1 [Compound 145] | < 100 | < 0.1 | 

Results, then the molecule that gave them:

Row | IC50 (BCAT2) [nM] | IC50 ([1]; Homo sapiens, 24 h) [µM] | IC50 ([1]; 24 hours) [µM] | Compound
10 | < 100 | < 0.1 |  | C#Cc1ccccc1-c1nc2cc(C(=O)NC)ccc2n1[C@H]1CCC[C@@H](NC(=O)c2ccc(Br)s2)C1 [Compound 151]
11 | < 100 | < 0.1 |  | CNC(=O)c1ccc2c(c1)nc(-c1cccc(F)c1)n2[C@H]1CCC[C@@H](NC(=O)c2ccc(Br)s2)C1 [Compound 154]
12 | < 100 | 0.5 to 1 |  | CNC(=O)c1cc2nc(-c3ccccn3)n([C@H]3CCC[C@@H](NC(=O)c4ccc(Br)s4)C3)c2cc1F [Compound 155]
13 | < 100 | < 0.1 |  | CNC(=O)c1cc2nc(-c3ccccc3C#N)n([C@H]3CCC[C@@H](NC(=O)c4ccc(Br)s4)C3)c2cc1F [Compound 157]
14 | < 100 | 0.1 to 0.5 |  | CNC(=O)c1ccc2c(c1)nc(-c1ccccc1C=O)n2[C@H]1CCC[C@@H](NC(=O)c2ccc(Br)s2)C1 [Compound 161]
15 | < 100 | 0.1 to 0.5 |  | CNC(=O)c1ccc2c(c1)nc(-c1cccc(F)c1O)n2[C@H]1CCC[C@@H](NC(=O)c2ccc(Br)s2)C1 [Compound 163]
16 | < 100 | 0.1 to 0.5 |  | CNC(=O)c1ccc2c(c1)nc(-c1c(O)cccc1F)n2[C@H]1CCC[C@@H](NC(=O)c2ccc(Br)s2)C1 [Compound 184]
17 | < 100 | < 0.1 |  | CNC(=O)c1cc2nc(-c3ccccc3F)n([C@H]3CCC[C@@H](NC(=O)c4ccc(Br)s4)C3)c2cc1F [Compound 207]
18 | < 100 | ≥ 1 |  | CNC(=O)c1cc2nc(-c3ccccc3C)n([C@H]3CCC[C@@H](NC(=O)c4ccc(Br)s4)C3)c2cc1F [Compound 208]
19 | < 100 | 0.1 to 0.5 |  | COC(=O)c1cc2nc(-c3ccccn3)n([C@@H]3CCC[C@H](NC(=O)c4ccc(Br)s4)C3)c2cn1 [Compound 291]
20 | < 100 | 0.1 to 0.5 |  | CNC(=O)c1cc2nc(-c3ccccn3)n([C@H]3CCC[C@@H](NC(=O)c4ccc(Br)s4)C3)c2cn1 [Compound 292]
